Results reported in article PMC10482267, “Safety, tolerability, pharmacokinetics, and pharmacodynamics of single and multiple doses of aficamten in healthy Chinese participants: a randomized, double-blind, placebo-controlled, phase 1 study” (Frontiers in Pharmacology, 2023).
Read-outs that look alike come from different tables or passages of the source.

Test system: healthy Chinese participants
Format: in vivo, human
Excerpt: Of note, the study was not designed to identify a maximum tolerated dose. Dose escalation was to stop if a non-tolerated dose was identified. PD endpoints, including left ventricular ejection fraction (LVEF), would be measured with echocardiograms, which were reviewed by an independent cardiologist for safety assessments. The study drug would be discontinued for participants who develop left ventricular dysfunction according to pre-specified stopping rules. For additional safety monitoring, an independent, unblinded cardiologist was present at the clinical research unit from dosing through the completion of the echocardiogram on the last dosing day.
Echocardiography assessments (left ventricular fractional shortening [LVFS], left ventricular stroke volume [LVSV], left ventricular outflow tract velocity time integral [LVOT-VTI], left ventricular end-systolic volume [LVESV], left ventricular end-diastolic volume [LVEDV], left ventricular cardiac output [LVCO], and LVEF) for the SAD cohorts were collected on day 1 (baseline) and at 1.5, 4, and 24 h post-dose on day 1. For the MD cohort, the assessments were collected on day 1 (baseline) at 1.5 and 4 h post-dose on day 1, at 1.5 h post-dose on days 2, 4, and 9, and at 3 and 24 h post-dose on day 14.
Of all the echocardiography parameters, the key parameters LVEF and LVFS were classified as follows with the number of participants summarized for each dosing condition: for the LVEF category, baseline LVEF ≥60%, and post-dose LVEF <50% or <45%; change of LVEF from baseline ≤ 5%, ≤10%, or ˂15%; for the VLFS category, change of LVFS from baseline ≤ 5%, ≤10%, or ˂15%. The dose–PD response relationship between the aficamten dose and placebo group was assessed using ANOVA analysis. […] Furthermore, the relationship between PK concentration–PD response was also assessed using ANCOVA analysis of post-dose PD parameters based on changes from baseline. The model included changes from baseline in PD parameters as the dependent variables, concentration tertiles (categorical variables) as fixed effects, baseline PD parameters as covariates, and the random intercept to account for repeated measures. In addition, the heart rate (HR), systolic blood pressure (SBP), and diastolic blood pressure (DBP) were collected as a part of the vital sign assessments at pre-dose and post-dose.

[1] = MD 5 mg N=9, 25.5 h (1.5 hours post-dose on Day 2)
[2] = MD 5 mg N=9, 73.5 h (1.5 hours post-dose on Day 4)
[3] = MD 5 mg N=9, 193.5 h (1.5 hours post-dose on Day 9)
[4] = MD 5 mg N=9, 315 h (3 hours post-dose on Day 14)
[5] = MD 5 mg N=9, 336 h (24 hours post-dose on Day 14)

## CCc1nc(-c2ccc3c(c2)CC[C@H]3NC(=O)c2cnn(C)c2)no1 [aficamten]
MD 5 mg N=9, 1.5 h
  LVEF Change From Baseline ≤ -5, participants: 1 (11.11%) n (%)
  LVEF Change From Baseline ≤ -10, participants: 0 (0%) n (%)
  LVEF Change From Baseline ≤ -15, participants: 0 (0%) n (%)
  LVFS Change from Baseline ≤ -5, participants: 3 (33.33%) n (%)
  LVFS Change from Baseline ≤ -10, participants: 1 (11.11%) n (%)
  LVFS Change from Baseline ≤ -15, participants: 0 (0%) n (%)
[1]
  LVEF Change From Baseline ≤ -5, participants: 4 (44.44%) n (%)
  LVEF Change From Baseline ≤ -10, participants: 0 (0%) n (%)
  LVEF Change From Baseline ≤ -15, participants: 0 (0%) n (%)
  LVFS Change from Baseline ≤ -5, participants: 4 (44.44%) n (%)
  LVFS Change from Baseline ≤ -10, participants: 0 (0%) n (%)
  LVFS Change from Baseline ≤ -15, participants: 0 (0%) n (%)
[2]
  LVEF Change From Baseline ≤ -5, participants: 3 (33.33%) n (%)
  LVEF Change From Baseline ≤ -10, participants: 0 (0%) n (%)
  LVEF Change From Baseline ≤ -15, participants: 0 (0%) n (%)
  LVFS Change from Baseline ≤ -5, participants: 5 (55.56%) n (%)
  LVFS Change from Baseline ≤ -10, participants: 1 (11.11%) n (%)
  LVFS Change from Baseline ≤ -15, participants: 0 (0%) n (%)
[3]
  LVEF Change From Baseline ≤ -5, participants: 1 (11.11%) n (%)
  LVEF Change From Baseline ≤ -10, participants: 0 (0%) n (%)
  LVEF Change From Baseline ≤ -15, participants: 0 (0%) n (%)
  LVFS Change from Baseline ≤ -5, participants: 4 (44.44%) n (%)
  LVFS Change from Baseline ≤ -10, participants: 0 (0%) n (%)
  LVFS Change from Baseline ≤ -15, participants: 0 (0%) n (%)
[4]
  LVEF Change From Baseline ≤ -5, participants: 2 (22.22%) n (%)
  LVEF Change From Baseline ≤ -10, participants: 0 (0%) n (%)
  LVEF Change From Baseline ≤ -15, participants: 0 (0%) n (%)
  LVFS Change from Baseline ≤ -5, participants: 1 (11.11%) n (%)
  LVFS Change from Baseline ≤ -10, participants: 0 (0%) n (%)
  LVFS Change from Baseline ≤ -15, participants: 0 (0%) n (%)
[5]
  LVEF Change From Baseline ≤ -5, participants: 2 (22.22%) n (%)
  LVEF Change From Baseline ≤ -10, participants: 0 (0%) n (%)
  LVEF Change From Baseline ≤ -15, participants: 0 (0%) n (%)
  LVFS Change from Baseline ≤ -5, participants: 1 (11.11%) n (%)
  LVFS Change from Baseline ≤ -10, participants: 0 (0%) n (%)
  LVFS Change from Baseline ≤ -15, participants: 0 (0%) n (%)
MD 5 mg cohort
  exposure–response analysis of change from baseline in echocardiogram parameters vs time-matched plasma concentrations: did not show a statistically significant effect
SAD 10 mg N=6, 1.5 h
  LVEF Change From Baseline ≤ -5, participants: 1 (16.67%) n (%)
  LVEF Change From Baseline ≤ -10, participants: 0 (0%) n (%)
  LVEF Change From Baseline ≤ -15, participants: 0 (0%) n (%)
  LVFS Change from Baseline ≤ -5, participants: 1 (16.67%) n (%)
  LVFS Change from Baseline ≤ -10, participants: 0 (0%) n (%)
  LVFS Change from Baseline ≤ -15, participants: 0 (0%) n (%)
SAD 10 mg N=6, 4 h
  LVEF Change From Baseline ≤ -5, participants: 1 (16.67%) n (%)
  LVEF Change From Baseline ≤ -10, participants: 0 (0%) n (%)
  LVEF Change From Baseline ≤ -15, participants: 0 (0%) n (%)
  LVFS Change from Baseline ≤ -5, participants: 0 (0%) n (%)
  LVFS Change from Baseline ≤ -10, participants: 0 (0%) n (%)
  LVFS Change from Baseline ≤ -15, participants: 0 (0%) n (%)
SAD 10 mg N=6, 24 h
  LVEF Change From Baseline ≤ -5, participants: 0 (0%) n (%)
  LVEF Change From Baseline ≤ -10, participants: 0 (0%) n (%)
  LVEF Change From Baseline ≤ -15, participants: 0 (0%) n (%)
  LVFS Change from Baseline ≤ -5, participants: 1 (16.67%) n (%)
  LVFS Change from Baseline ≤ -10, participants: 0 (0%) n (%)
  LVFS Change from Baseline ≤ -15, participants: 0 (0%) n (%)
SAD 10 mg-dose group, 1.5 h post-dose
  number of subjects with LVEF reduction of 5%–10%: one
SAD 20 mg N=6, 1.5 h
  LVEF Change From Baseline ≤ -5, participants: 3 (50%) n (%)
  LVEF Change From Baseline ≤ -10, participants: 1 (16.67%) n (%)
  LVEF Change From Baseline ≤ -15, participants: 0 (0%) n (%)
  LVFS Change from Baseline ≤ -5, participants: 3 (50%) n (%)
  LVFS Change from Baseline ≤ -10, participants: 1 (16.67%) n (%)
  LVFS Change from Baseline ≤ -15, participants: 0 (0%) n (%)
SAD 20 mg N=6, 4 h
  LVEF Change From Baseline ≤ -5, participants: 2 (33.33%) n (%)
  LVEF Change From Baseline ≤ -10, participants: 0 (0%) n (%)
  LVEF Change From Baseline ≤ -15, participants: 0 (0%) n (%)
  LVFS Change from Baseline ≤ -5, participants: 1 (16.67%) n (%)
  LVFS Change from Baseline ≤ -10, participants: 0 (0%) n (%)
  LVFS Change from Baseline ≤ -15, participants: 0 (0%) n (%)
SAD 20 mg N=6, 24 h
  LVEF Change From Baseline ≤ -5, participants: 1 (16.67%) n (%)
  LVEF Change From Baseline ≤ -10, participants: 0 (0%) n (%)
  LVEF Change From Baseline ≤ -15, participants: 0 (0%) n (%)
  LVFS Change from Baseline ≤ -5, participants: 2 (33.33%) n (%)
  LVFS Change from Baseline ≤ -10, participants: 0 (0%) n (%)
  LVFS Change from Baseline ≤ -15, participants: 0 (0%) n (%)
SAD 20 mg group, 1.5 h post-dose
  number of subjects with LVEF reduction of 10%–15%: one
SAD 20 mg-dose group, 1.5 h post-dose
  number of participants with LVEF reduction of 5%–10%: three
SAD cohorts, group 2: 37.6–56.3 ng/mL, p < 0.05
  LVFS change from baseline vs placebo group by PK concentration group: statistically significant changes from baseline
SAD cohorts, group 3: 62.5–199.0 ng/mL, p < 0.05
  LVEF change from baseline vs placebo group by PK concentration group: statistically significant changes from baseline
SAD cohorts, p < 0.05
  PK–PD relationship between plasma concentration and LVEF and LVFS: significant inverse PK–PD relationships
Any dose group, ANOVA
  PD parameter changes from baseline, dose group vs placebo group: no statistically significant difference
